Data published in ChEMBL document CHEMBL1201862, “PubChem BioAssay data set” (2004).
Calls of active or inactive are those of the source.

Columns and labels:
[1] = cytotoxicity toward DRD oncogenic fibroblasts, dose response, cell-based, non-viral oncogenic, luminescence (AID 1934); format: functional; settings: Homo sapiens
[2] = Vero E6 cell cytotoxicity, dose response, cytotoxicity control for non-replicating M. tuberculosis project, secondary assay (AID 492998); format: functional, VeroE6; settings: Vero C1008
[3] = biological target: T1, Caspase-3 (Homo sapiens, UniProt P42574); experiment: SAR Analysis of small molecule inhibitors of Sentrin-specific proteases (SENPs) using a Caspase-3 Selectivity assay. [Related pubchem assays (depositor defined):AID2540, AID2599, AID434973, AID489001]; format: functional
T1 sequence (P42574 whole entry): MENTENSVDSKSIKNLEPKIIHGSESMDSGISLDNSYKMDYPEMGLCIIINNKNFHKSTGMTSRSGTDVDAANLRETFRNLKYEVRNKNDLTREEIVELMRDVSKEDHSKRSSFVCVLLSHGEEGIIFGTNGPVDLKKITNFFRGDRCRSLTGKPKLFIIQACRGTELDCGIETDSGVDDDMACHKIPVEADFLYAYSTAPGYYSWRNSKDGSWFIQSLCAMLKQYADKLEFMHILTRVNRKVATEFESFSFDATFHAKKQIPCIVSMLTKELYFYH

[4] = biological target: T2, Rac GTPase-activating protein 1 (Homo sapiens, UniProt Q9H0H5); experiment: MgcRacGAP GTPase-activating activity inhibitors, confirmation, biochemical, ADP Hunter fluorescence, primary and confirmatory (AID 624330); format: functional
T2 sequence (Q9H0H5 whole entry): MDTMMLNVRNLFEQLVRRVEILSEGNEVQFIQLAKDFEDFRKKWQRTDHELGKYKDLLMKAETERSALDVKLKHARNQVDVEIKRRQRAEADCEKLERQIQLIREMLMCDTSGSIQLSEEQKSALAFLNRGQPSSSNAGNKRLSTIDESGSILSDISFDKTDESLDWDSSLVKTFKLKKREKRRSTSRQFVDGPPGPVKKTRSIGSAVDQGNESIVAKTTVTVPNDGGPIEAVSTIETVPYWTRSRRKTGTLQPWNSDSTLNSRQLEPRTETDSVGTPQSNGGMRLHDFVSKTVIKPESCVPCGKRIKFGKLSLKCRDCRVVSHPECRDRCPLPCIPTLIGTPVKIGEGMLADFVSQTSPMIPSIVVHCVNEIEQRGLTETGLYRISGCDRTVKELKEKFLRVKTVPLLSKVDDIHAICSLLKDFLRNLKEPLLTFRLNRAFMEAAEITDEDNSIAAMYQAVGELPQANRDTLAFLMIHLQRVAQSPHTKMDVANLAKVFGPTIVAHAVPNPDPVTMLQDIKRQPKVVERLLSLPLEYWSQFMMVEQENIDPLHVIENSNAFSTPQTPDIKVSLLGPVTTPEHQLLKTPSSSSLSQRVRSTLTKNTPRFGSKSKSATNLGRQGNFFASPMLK

[5] = cytotoxicity toward NIH3T3 fibroblasts, dose response, counter-screen, cell-based, ATP luminescence, mouse fibroblasts (AID 2010); format: functional;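 also: cells exposed to compound for about 90 hours before reading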
[6] = biological target: T3, Hexokinase-1 (Homo sapiens, UniProt P19367); experiment: hexokinase 1 activators, dose response, selectivity assay for HKDC1 activator project, biochemical (AID 504762); format: functional
T3 sequence (P19367 whole entry): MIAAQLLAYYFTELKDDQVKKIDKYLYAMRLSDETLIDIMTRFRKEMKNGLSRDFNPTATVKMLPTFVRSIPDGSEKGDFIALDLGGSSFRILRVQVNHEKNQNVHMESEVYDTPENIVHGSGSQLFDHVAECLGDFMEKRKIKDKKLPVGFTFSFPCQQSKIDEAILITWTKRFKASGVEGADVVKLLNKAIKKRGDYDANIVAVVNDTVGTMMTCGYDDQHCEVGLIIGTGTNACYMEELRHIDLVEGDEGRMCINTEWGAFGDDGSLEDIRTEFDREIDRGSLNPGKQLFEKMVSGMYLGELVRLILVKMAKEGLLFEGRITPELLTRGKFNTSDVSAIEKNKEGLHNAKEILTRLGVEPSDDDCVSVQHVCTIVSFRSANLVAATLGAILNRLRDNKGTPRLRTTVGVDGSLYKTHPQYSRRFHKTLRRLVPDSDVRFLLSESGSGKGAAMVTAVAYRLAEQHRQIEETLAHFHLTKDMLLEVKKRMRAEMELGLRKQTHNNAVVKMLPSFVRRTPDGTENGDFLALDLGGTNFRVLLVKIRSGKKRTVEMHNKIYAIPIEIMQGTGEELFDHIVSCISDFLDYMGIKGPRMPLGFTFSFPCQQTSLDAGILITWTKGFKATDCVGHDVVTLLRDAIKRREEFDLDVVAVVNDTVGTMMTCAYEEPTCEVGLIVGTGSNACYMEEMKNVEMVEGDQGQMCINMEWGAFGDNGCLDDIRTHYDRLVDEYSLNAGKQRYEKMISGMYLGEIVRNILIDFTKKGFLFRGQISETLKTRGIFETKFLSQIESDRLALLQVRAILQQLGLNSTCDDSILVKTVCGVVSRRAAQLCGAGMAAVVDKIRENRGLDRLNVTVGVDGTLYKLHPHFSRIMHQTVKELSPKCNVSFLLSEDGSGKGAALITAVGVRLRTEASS

[7] = biological target: Transitional endoplasmic reticulum ATPase (Homo sapiens, UniProt P55072, C522A); experiment: C522A mutant p97 ATPase inhibitors, dose response, counter-screen for p97 inhibitor project, biochemical, luminescence (AID 1544)
[8] = biological target: Peroxisome proliferator-activated receptor gamma/Nuclear receptor corepressor 2 (Homo sapiens, UniProt P37231+Q9Y618); format: functional
[9] = biological target: T4, Sphingosine 1-phosphate receptor 4 (Homo sapiens, UniProt O95977); experiment: Fluorescence dose response cell-based high throughput screening assay for antagonists of the Sphingosine 1-Phosphate Receptor 4 (S1P4). [Related pubchem assays: 1524 (Confirmation in triplicates.), 1510 (Primary screen.)]; format: functional
T4 sequence (O95977 whole entry): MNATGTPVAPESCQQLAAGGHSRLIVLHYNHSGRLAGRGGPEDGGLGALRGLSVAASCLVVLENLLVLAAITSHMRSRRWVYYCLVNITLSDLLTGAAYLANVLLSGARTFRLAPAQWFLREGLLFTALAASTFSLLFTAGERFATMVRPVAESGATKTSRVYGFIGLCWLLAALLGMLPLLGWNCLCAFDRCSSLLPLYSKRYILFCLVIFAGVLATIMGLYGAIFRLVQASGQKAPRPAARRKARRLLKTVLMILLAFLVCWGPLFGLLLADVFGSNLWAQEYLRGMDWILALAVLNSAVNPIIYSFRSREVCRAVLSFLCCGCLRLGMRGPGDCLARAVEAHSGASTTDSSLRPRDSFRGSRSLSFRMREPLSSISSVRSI

[10] = biological target: Transitional endoplasmic reticulum ATPase (Homo sapiens, UniProt P55072); experiment: p97 ATPase inhibitors, dose response, biochemical (AID 1534)
[11] = C. albicans growth with fluconazole, confirmation, fluorescence, retest (AID 2467); format: functional, cell-based
[12] = cytotoxicity in HEK-293T cells, dose response, cytotoxicity control for TCR NF-kB inhibitor project, luminescence, T-cell screen hits (AID 489026); format: functional, cell-based;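 also: cells exposed to compound about 14 hours before the viability readout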

Chain of Peroxisome proliferator-activated receptor gamma/Nuclear receptor corepressor 2 (P37231 whole entry): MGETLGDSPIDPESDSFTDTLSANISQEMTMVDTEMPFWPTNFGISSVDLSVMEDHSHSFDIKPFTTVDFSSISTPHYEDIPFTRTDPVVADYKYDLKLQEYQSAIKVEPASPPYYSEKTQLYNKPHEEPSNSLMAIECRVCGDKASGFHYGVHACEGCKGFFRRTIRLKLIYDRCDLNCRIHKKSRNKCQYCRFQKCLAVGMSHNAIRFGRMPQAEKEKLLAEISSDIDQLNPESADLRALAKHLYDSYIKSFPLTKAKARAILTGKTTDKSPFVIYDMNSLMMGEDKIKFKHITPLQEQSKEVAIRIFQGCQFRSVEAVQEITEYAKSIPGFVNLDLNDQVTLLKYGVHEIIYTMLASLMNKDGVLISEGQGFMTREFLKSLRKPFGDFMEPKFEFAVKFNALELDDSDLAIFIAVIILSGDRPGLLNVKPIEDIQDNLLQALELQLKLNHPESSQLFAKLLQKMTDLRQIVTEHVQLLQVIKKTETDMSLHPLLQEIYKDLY
Chain of Peroxisome proliferator-activated receptor gamma/Nuclear receptor corepressor 2 (Q9Y618 whole entry): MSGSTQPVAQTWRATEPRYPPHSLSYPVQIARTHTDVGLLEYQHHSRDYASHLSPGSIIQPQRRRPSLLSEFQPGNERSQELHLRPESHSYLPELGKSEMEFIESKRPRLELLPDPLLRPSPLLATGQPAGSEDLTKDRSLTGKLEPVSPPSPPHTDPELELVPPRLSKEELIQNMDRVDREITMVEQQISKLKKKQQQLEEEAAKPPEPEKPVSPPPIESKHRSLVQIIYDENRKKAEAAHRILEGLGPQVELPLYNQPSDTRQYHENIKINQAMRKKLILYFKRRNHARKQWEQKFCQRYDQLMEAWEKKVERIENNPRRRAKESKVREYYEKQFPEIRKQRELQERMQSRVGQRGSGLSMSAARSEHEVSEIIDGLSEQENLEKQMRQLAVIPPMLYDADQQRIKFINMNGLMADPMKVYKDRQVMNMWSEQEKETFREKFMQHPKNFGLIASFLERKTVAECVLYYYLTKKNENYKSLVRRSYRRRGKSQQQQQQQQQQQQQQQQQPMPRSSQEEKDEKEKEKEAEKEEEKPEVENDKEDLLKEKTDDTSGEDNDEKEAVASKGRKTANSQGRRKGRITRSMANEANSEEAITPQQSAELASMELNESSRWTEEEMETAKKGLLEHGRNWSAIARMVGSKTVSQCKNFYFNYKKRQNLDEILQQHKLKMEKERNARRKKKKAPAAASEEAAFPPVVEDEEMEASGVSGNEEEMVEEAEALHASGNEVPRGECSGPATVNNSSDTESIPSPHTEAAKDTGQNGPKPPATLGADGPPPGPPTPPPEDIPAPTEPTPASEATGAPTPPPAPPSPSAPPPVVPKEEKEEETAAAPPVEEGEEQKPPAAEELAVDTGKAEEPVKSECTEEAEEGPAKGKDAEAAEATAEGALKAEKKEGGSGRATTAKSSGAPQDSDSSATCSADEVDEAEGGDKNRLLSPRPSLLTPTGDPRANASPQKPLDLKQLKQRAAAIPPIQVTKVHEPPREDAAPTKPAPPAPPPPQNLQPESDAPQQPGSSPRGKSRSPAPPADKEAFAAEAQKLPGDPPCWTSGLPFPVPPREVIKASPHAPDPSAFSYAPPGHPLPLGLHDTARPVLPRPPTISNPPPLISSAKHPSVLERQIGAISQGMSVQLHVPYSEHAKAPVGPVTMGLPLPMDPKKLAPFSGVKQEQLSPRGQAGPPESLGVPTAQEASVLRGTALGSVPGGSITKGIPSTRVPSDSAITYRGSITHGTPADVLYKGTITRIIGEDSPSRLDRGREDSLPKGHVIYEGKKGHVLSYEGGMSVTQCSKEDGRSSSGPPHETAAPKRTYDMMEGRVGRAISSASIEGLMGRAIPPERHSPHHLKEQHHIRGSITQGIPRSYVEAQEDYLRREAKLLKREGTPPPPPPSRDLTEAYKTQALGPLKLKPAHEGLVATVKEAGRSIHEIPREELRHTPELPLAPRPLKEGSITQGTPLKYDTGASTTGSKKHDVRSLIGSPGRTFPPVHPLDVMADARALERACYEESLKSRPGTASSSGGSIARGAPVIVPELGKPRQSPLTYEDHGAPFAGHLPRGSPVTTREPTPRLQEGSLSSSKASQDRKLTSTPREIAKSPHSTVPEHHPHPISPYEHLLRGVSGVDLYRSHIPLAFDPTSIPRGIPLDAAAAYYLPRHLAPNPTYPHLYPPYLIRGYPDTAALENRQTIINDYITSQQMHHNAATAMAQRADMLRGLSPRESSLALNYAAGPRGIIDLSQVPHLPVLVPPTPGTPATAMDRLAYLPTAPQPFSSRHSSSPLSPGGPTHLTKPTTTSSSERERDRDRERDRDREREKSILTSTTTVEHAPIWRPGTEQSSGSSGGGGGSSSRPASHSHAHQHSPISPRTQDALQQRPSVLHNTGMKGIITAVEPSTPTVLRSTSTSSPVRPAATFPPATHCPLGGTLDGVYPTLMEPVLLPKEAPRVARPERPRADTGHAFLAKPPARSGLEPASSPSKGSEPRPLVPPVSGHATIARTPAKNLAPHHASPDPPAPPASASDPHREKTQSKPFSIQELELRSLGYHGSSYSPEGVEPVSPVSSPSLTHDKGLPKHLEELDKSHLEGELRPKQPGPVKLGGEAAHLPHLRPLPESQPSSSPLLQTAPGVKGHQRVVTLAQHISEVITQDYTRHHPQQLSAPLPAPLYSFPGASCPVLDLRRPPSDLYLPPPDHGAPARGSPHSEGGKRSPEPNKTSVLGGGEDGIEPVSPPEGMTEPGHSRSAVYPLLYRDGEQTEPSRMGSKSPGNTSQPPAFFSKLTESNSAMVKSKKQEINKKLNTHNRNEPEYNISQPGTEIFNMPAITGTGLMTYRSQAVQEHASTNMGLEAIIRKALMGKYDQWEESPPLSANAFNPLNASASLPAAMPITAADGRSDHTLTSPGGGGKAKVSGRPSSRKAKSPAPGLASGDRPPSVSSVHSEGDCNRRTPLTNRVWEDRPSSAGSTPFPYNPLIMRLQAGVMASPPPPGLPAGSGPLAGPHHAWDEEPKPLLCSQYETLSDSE
Chain of Transitional endoplasmic reticulum ATPase (Homo sapiens, UniProt P55072, C522A) (P55072 2-806 C522A limits assumed): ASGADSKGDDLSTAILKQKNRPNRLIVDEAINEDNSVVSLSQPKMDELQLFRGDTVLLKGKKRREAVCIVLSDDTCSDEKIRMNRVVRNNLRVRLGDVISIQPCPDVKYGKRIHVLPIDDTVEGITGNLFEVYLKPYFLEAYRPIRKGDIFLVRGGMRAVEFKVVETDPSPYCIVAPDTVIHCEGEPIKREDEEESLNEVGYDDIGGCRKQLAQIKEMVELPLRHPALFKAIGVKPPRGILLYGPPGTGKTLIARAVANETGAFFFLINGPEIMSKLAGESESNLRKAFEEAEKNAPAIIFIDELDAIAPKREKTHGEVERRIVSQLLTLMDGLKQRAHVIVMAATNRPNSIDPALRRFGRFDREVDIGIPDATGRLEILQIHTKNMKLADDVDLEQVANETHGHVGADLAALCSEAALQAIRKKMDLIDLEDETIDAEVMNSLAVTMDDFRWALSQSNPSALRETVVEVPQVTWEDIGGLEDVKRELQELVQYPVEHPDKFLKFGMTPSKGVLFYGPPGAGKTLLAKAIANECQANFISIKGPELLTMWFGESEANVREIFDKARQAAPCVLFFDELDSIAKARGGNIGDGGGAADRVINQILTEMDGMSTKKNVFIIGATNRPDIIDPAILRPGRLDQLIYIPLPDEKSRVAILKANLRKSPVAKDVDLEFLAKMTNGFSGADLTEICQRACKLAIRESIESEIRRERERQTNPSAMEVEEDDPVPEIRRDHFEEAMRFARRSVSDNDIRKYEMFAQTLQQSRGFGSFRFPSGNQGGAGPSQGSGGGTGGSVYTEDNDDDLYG
Chain of Transitional endoplasmic reticulum ATPase (Homo sapiens, UniProt P55072) (P55072 whole entry): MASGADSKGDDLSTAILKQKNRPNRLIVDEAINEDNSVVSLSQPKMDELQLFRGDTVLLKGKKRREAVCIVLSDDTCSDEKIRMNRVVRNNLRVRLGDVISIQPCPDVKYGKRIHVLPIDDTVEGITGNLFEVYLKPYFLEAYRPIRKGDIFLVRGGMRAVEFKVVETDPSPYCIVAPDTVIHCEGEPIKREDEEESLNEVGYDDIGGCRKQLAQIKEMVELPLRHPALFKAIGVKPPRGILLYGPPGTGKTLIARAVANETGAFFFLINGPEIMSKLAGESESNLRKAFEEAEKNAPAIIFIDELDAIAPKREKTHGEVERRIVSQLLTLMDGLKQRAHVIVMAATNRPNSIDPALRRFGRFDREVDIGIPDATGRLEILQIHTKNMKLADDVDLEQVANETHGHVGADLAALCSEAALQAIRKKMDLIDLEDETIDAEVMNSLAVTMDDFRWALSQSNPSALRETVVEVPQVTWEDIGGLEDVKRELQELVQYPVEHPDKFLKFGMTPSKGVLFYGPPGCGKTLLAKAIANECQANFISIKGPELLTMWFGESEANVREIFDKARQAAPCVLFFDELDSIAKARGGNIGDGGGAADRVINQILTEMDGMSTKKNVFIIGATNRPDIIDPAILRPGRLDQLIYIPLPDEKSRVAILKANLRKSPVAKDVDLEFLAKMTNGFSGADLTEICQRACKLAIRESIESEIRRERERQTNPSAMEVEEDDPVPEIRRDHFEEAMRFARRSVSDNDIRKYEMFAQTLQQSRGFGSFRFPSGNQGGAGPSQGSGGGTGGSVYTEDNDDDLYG

Structure (SMILES): O=C(Cc1ccc([N+](=O)[O-])cc1)N/N=C/c1ccc([N+](=O)[O-])o1
- EC50 [1]: 38.3 µM (active)
- CC50 [2]: > 20 µM (active)

Structure (SMILES): CCCCNc1cc(NC(C)=O)cc2cc(OC)c(OC)cc12
- IC50 [3]: > 99 µM (inactive)
- IC50 [4]: 39.5 µM (active)

Structure (SMILES): SC1=Nc2ccccc2C1
- EC50 [5]: 15.8 µM (active)
- EC50 [6]: 19.3 µM (active)

Structure (SMILES): Cn1nc(-c2ccc(Cl)cc2)nc2c(=O)n(C)c(=O)nc1-2
- IC50 [7]: > 50 µM (not active)
- IC50 [8]: > 4.43 µM (active)
- IC50 [9]: 0.396 µM (active)
- IC50 [10]: > 50 µM (not active)

Structure (SMILES): COc1ccc(C(NC(=O)C(C)C)c2ccc3cccnc3c2O)cc1 (configuration not stated)
- EC50 [11]: 0.692 µM (active)
- IC50 [12]: > 80 µM (inactive)
